Test results published in patent US20210352895A1, “SYNERGISTIC PESTICIDAL COMPOSITIONS AND METHODS FOR DELIVERY OF ACTIVE INGREDIENTS” (0903608 B.C. Ltd., priority 2018, published 2021).
Read-outs that look alike come from different tables or passages of the source.

How the values were obtained:
Sclerotinia sclerotiorum = test: Synergistic Growth Inhibition Assay (MIC / FIC index, resazurin, 96-well) on Sclerotinia sclerotiorum; format: cell-based; conditions: Sclerotinia sclerotiorum, […], Compound B alone, Sclerotinia sclerotiorum, read-out: MIC (B)
Method: (§1) In some embodiments, the synergistic action between the pesticidal active ingredient, and the at least one C4-C10 (or alternatively C11 or C12) saturated or unsaturated aliphatic acid components of the pesticidal compositions according to embodiments of the present disclosure was tested using a Synergistic Growth Inhibition Assay, which is derived from and related to a checkerboard assay as is known in the art for testing of combinations of antimicrobial agents. In the Synergistic Growth Inhibition Assay used in accordance with some embodiments of the present disclosure, multiple dilutions of combinations of pesticidal active ingredient and at least one C4-C10 saturated or unsaturated aliphatic acid agents are tested in individual cells for inhibitory activity against a target pest or pathogenic organism. In one such embodiment, the combinations of pesticidal active ingredient and C4-C10 (or alternatively C11 or C12) saturated or unsaturated aliphatic acid agents may preferably be tested in decreasing concentrations. In a further such embodiment, the combinations of pesticidal active ingredient and C4-C10 (or alternatively C11 or C12) saturated or unsaturated aliphatic acid agents may be tested in increasing concentrations. These multiple combinations of the pesticidal active ingredient and at least one C4-C10 (or alternatively C11 or C12) saturated or unsaturated aliphatic acid agents may be prepared in 96-well microtiter plates. In one such embodiment, the Synergistic Growth Inhibition Assay then comprises rows which each contain progressively decreasing concentrations of the pesticidal active ingredient and one or more C4-C10 (or alternatively C11 or C12) saturated or unsaturated aliphatic acid agents to test for the MIC of the agents in combination at which growth of the target pest or pathogen is inhibited. Thus, each well of the microtiter plate is a unique combination of the two agents, at which inhibitory efficacy of the combination against the target pest or pathogen can be determined.
(§2) In one embodiment according to the present disclosure, for each row of microtiter cells in the Synergistic Growth Inhibition Assay, the FIC index is calculated from the lowest concentration of the pesticidal active ingredient and one or more C4-C10 saturated or unsaturated aliphatic acid agents necessary to inhibit growth of a target pest or pathogen. The FIC of each component is derived by dividing the concentration of the agent present in that well of the microtiter plate by the minimal inhibitory concentration (MIC) needed of that agent alone to inhibit growth of the target pest or pathogen. The FIC index is then the sum of these values for both agents in that well of the microtiter plate. The FIC index is calculated for each row as follows:
(§3) FICindex=MICa/MICA+MICb/MICB
(§4) Fractional inhibitory concentration indices may then used as measure of synergy. […] When the FIC index is equal to 1, the combination is additive.
(§5) Then, serial dilutions of these initial compositions in successive wells in the row of the microtiter plate were used to assay the pesticidal composition under the same conditions to determine the concentration of the composition combining the two agents corresponding to the microtiter well in which growth inhibition of the target pest or organism ceases.
(§6) Similarly to as described above, Resazurin was used as an indicator of growth or inhibition of growth of Sclerotinia sclerotiorum in the exemplary Synergistic Growth Inhibition Assay. In addition to the color change of the resazurin, an optical or visual examination of the microtiter well may also be made to additionally determine the presence of growth or inhibition of growth of the Sclerotinia sclerotiorum.

Fusarium oxysporum = test: Synergistic Growth Inhibition Assay (MIC / FIC index, resazurin, 96-well) on Fusarium oxysporum; format: cell-based; conditions: Fusarium oxysporum, Fusarium oxysporum; for MIC: 48 h, Compound B alone, read-out: MIC (B)
Method: as §1, §2, §3, §4, §5
Resazurin dye (also known as Alamar blue dye) was used as an indicator to determine the presence of growth or inhibition of growth of Fusarium oxysporum in the wells of the 96 well microtiter plates used in the exemplary Synergistic Growth Inhibition Assay. In addition to the color change of the resazurin dye in the presence of growth of the Fusarium oxysporum, an optical or visual examination of the microtiter well may also be made to additionally determine the presence of growth or inhibition of growth of the Fusarium oxysporum.

Botrytis cinerea = test: Synergistic Growth Inhibition Assay (MIC / FIC index, resazurin, 96-well) on Botrytis cinerea; format: cell-based; conditions: Compound B alone, Botrytis cinerea; for MIC: 48 h, read-out: MIC (B)
Method: as §1, §2, §3, §4, §5
as §6, with “Botrytis cinerea” for “Sclerotinia sclerotiorum”, “Botrytis cinerea.” for “Sclerotinia sclerotiorum.”

Trichoplusia ni = test: In-vitro insecticidal efficacy of Entrust SC (spinosad) with saturated and unsaturated aliphatic acids on artificial diet, Abbott and Colby formulae; format: in vivo, Trichoplusia ni (cabbage looper); conditions: Entrust SC 0.034 ppm ([…] spinosad); aliphatic acid (salt) 500 ppm; Abbott-corrected
Method: An artificial diet suitable for Trichoplusia ni (cabbage looper caterpillar) was prepared from a commercially available general purpose lepidoptera artificial diet premix (General Purpose Lepidoptera Diet available from Frontier Scientific Services, Newark, Del.) mixed in agar media and then heated to liquify the media. The liquid artificial diet media was then used to fill each well of a 96-well treatment plate with 200 uL of artificial diet media, which was allowed to solidify at room temperature and stored at approximately 4 C.
A 20 uL treatment sample of each treatment formulation was then placed on top of the solidified artificial diet media in each well of the 96 well plates and allowed to dry overnight. The following day, one neonate Trichoplusia ni (cabbage looper) larva (hatched from eggs obtained from the Natural Resource Canada insect research facility in Sault-Ste-Marie, ON, Canada) was added to each well of the plate, and their mortality rate was evaluated after 5 days, to determine the insecticidal efficacy of the Entrust® SC treatment alone, each exemplary unsaturated or saturated aliphatic acid (and salt) alone, and each combination of spinosad (as Entrust® SC) and unsaturated or saturated aliphatic acid (and salt). Each experiment contained 3 replicates.
While for SF<1, antagonism is present and for SF=1, the efficacy of the compounds is merely additive.

| Structure (SMILES) | MIC (Sclerotinia sclerotiorum; incubation period of 7 days) [µg/mL] | MIC (Fusarium oxysporum; 48 hours incubation) [µg/mL] | Observed Efficacy, W (%) (Trichoplusia ni) | further results |
| --- | --- | --- | --- | --- |
| CC=CC=CC(=O)O [2,4-Dihexenoic acid] | – | – | – | MIC (B) (Botrytis cinerea; incubation period of 48 hours): 125 µg/mL |
| CCCCCCC=CCC(=O)O [3-Decenoic acid, 3-decenoic acid] | – | – | 0 | MIC (B) (Fusarium oxysporum; Compound B (aliphatic acid) alone, incubation period of 48 hours): 312.5 µg/mL |
| CC(O)CC(=O)O (stereo not shown) [3-Hydroxybutyric acid, 3-hydroxybutyric acid] | – | – | – | MIC (B) (Botrytis cinerea; 48 hours incubation): 10000 µg/mL |
| CCCC(O)CC(=O)O (stereo not shown) [3-Hydroxyhexanoic acid, 3-hydroxyhexanoic acid] | – | – | – | MIC (B) (Botrytis cinerea; 48 hours incubation): 2500 µg/mL |
| CCCCC=CCC(=O)O [3-Octenoic acid, 3-octenoic acid] | – | – | 0 | – |
| CCCC=CCC(=O)O [3-heptanoic acid] | – | – | 4.5 | – |
| CCCCCC=CCC(=O)O [3-nonenoic acid] | – | – | 9.1 | – |
| C=CCCCC(=O)O [5-hexenoic acid] | – | – | 0 | – |
| C=CCCCCCC(=O)O [7-octenoic acid] | – | – | 0 | – |
| C=CCCCCCCCC(=O)O [9-Decenoic acid, 9-decenoic acid] | – | – | 4.5 | – |

More lines, main results first:

| MIC (Sclerotinia sclerotiorum; incubation period of 7 days) [µg/mL] | MIC (Fusarium oxysporum; 48 hours incubation) [µg/mL] | Structure (SMILES) | Observed Efficacy, W (%) (Trichoplusia ni) | further results |
| --- | --- | --- | --- | --- |
| 250 | 250 | CCC(CC)(CC)C(=O)O [2,2-diethylbutyric acid] | – | – |
| 2500 | 5000 | CCC(O)C(=O)O (stereo not shown) [2-hydroxybutyric acid] | – | MIC (Sclerotinia sclerotiorum; 7 days incubation): 2500 µg/mL; MIC (Fusarium oxysporum; incubation period of 48 hours): 5000 µg/mL |
| 2500 | 2500 | CCCCC(O)C(=O)O (stereo not shown) [2-hydroxyhexanoic acid] | – | MIC (Botrytis cinerea; 48 hours incubation): 2500 µg/mL; MIC (Botrytis cinerea; incubation period of 2 days): 2500 µg/mL; MIC (Fusarium oxysporum; incubation period of 48 hours): 2500 µg/mL |
| 312 | 625 | CCCCCCC(O)C(=O)O (stereo not shown) [2-hydroxyoctanoic acid] | – | MIC (Fusarium oxysporum; incubation period of 48 hours): 625 µg/mL |
| 625 | – | CCCCCC(O)CC(=O)O (stereo not shown) [3-hydroxyoctanoic acid] | – | MIC (Sclerotinia sclerotiorum; 7 days incubation): 625 µg/mL; MIC (Fusarium oxysporum; incubation period of 48 hours): 1250 µg/mL |
| – | 625 | CC(C)CC(=O)O [3-methylbutyric acid] | – | MIC (Sclerotinia sclerotiorum; 7 days incubation): 312 µg/mL |
| 125 | 125 | CCCC(C)CC(=O)O (stereo not shown) [3-methylhexanoic acid] | – | MIC (Sclerotinia sclerotiorum; 7 days incubation): 125 µg/mL |
| 78.1 | 156 | CCC(C)CCC(=O)O (stereo not shown) [4-methylhexanoic acid] | – | MIC (Sclerotinia sclerotiorum; 7 days incubation): 78.1 µg/mL; MIC (Botrytis cinerea; incubation period of 48 hours): 156 µg/mL |
